Assay results published in US20050009772A1, “Methods and compositions for the treatment of glaucoma and other retinal diseases” (The Regents of the University of California, priority 2003, published 2005).
“Also recorded” adds a separate entry of the source.

Tests used:
[1] = tested on: HSC70; test: Western blot for HSC70 in enriched RGC fraction after systemic administration of GGA (Experiment 1); type: in vivo, rat; conditions: GGA 200 mg/kg daily i.p. 1, 3, 7 days vs control groups
Description: Three experiments are summarized here, and details are provided in the subsequent sections. […] For Western blotting, twelve rats were equally divided into 6 groups. […] Enriched RGC fraction was harvested from 2 retinas of each group and used for Western blot analysis. The same experiment for isolation of RGCs and Western blotting was repeated with the other 2 retinas-from each group.
GGA was a gift from Esai Co, Ltd (Tokyo, Japan). […] Saline-vehicle was prepared and administered in the same fashion in vehicle-treated control groups.
A previously described method was modified to partially purify RGCs from other retinal cells in rat retinas.38 Briefly, two dissected rat retinas from each subgroup were washed in 2.5 ml of calcium- and magnesium-free phosphate buffered saline (PBS) at pH 7.4, and incubated in 1.25 ml of PBS containing 0.5 mg/ml trypsin and 0.01% deoxyribonuclease for 15 minutes at 37° C. […] The cells were then resuspended in 400 μl of MEM buffer, and the protein concentration in the cell suspension was measured with a bicinchoninic acid (BCA) protein assay kit (Pierce, Rockford, Ill.).
The membrane was blocked by incubation in 0.1% Tween-20 in 100 mM Tris-buffered saline containing 10% nonfat dried milk for 1 hour. […] The immunoreactive bands were detected by chemiluminescence with an enhanced chemiluminescence Western blot reagent (Amersham Pharmacia).

[2] = tested on: cells in the retinal ganglion cell layer (RGCL); test: Counting of cresyl violet-stained cells in the RGCL in rat glaucoma model (Experiment 2); type: in vivo
Description: GGA was then given twice a week at the same dose until euthanasia. Sustained elevation of intraocular pressure (IOP) was maintained by performing trabecular laser photocoagulation three weeks after the first photocoagulation. […] IOP and body weight were measured once a week. After 5 weeks of IOP elevation, the number of retrogradely labeled RGCs with dextran tetramethylrhodamine (DTMR) was counted (n=53). The grading of optic nerve injury and the counting of cresyl violet-stained cells in the retinal ganglion cell layer (RGCL) was also performed (n=54).
Rats were anesthetized with intramuscular injections of 0.8 ml/kg of the anesthetic cocktail described above. A previously published procedure was modified to produce chronic moderately elevated IOP unilaterally, while the untreated contralateral eye served as the comparative control.40 Animals were injected intracamerally with 10 μl of 35% India ink (Becton Dickinson, Cockeysville, Md.) in 0.01 M PBS after removing a similar volume of aqueous. At the end of the procedure, Tobrex ophthalmic ointment (tobramycin 0.3%; Alcon, Fort Worth, Tex.) was applied topically. Five days after intracameral injection of India ink, a dark band at the limbus was noted due to the aggregation of carbon particles in the trabecular meshwork.38 After anesthesia, approximately 200 laser burns were delivered ab externo to the pigmented trabecular band at laser settings of 200 μm diameter, 200 mW power and 0.2 seconds duration. Three weeks after the first laser treatment, another trabecular laser photocoagulation was performed without further injection of ink.
Corresponding loss of cells from the RGCL was evaluated by counting cells in the RGCL in cresyl violet-stained retinas. After collecting the optic nerves, enucleated eyeballs were postfixed in 10% neutral buffered formalin for 1 hour and washed in 0.1 M phosphate buffer (pH 7.4). The retinas were dissected and flat mounted on a slide, vitreal side up. Four radial cuts were made in the peripheral retinas. The specimens were dried overnight, stained with 1% cresyl violet, dehydrated, and covered with coverslips. Morphologically distinguishable glial cells and vascular endothelial cells were not counted. Cells with cytoplasm rich in Nissl substance and with irregular outlines were counted as neurons.43 The numbers of neurons in the RGCL in regions 1 mm (posterior), 2 mm (mid-peripheral) and 3 mm (peripheral) from the center of the optic nerve head were taken with an eye-piece reticule of a microscope at 400× magnification. The counting was performed by two investigators in a masked fashion and averaged.

Geranylgeranylacetone [GGA]
immunoreactivity against HSC70 in RGCs (immunoblot) [1]: no change in HSC70 expression; also recorded: no detectable difference
cells in the RGCL (cresyl violet) ([2]; 5 weeks of elevated IOP): 2697±70 cells/mm2
effect on loss of cells in the RGCL (in words) ([2]; 5 weeks of elevated IOP): inhibited the loss of cells
cells in the RGCL (cresyl violet) ([2]; contralateral control retinas): 2644±59 cells/mm2
effect on number of cells in the RGCL (in words) ([2]; contralateral control retinas): no significant effect
